Data from patent US10124004B2, “Pyrido[3,4-d]pyrimidine derivative and pharmaceutically acceptable salt thereof” (Teijin Pharma Limited, priority 2015, dated 2018).
pIC50: −log10 of the molar value. Read-outs that look alike come from different tables or passages of the source.

What was measured:
CDK4/cyclin D3 = biological target: T1, CDK4/cyclin D3 (Homo sapiens, UniProt P11802); test: Human CDK4/cyclin D3 inhibitory activity (QS S Assist CDK4/Cyclin D3_FP Kit, IMAP fluorescence polarization); type: biochemical
T1 construct: purchased Carna Biosciences, Inc. QS S Assist CDK4/Cyclin D3_FP Kit
In short: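 IMAP fluorescence-polarization kinase assay with kit ATP/substrate/metal mix and 12.5 to 25 ng/well enzyme in 20 mM HEPES pH 7.4, 0.01% Tween20, 2 mM DTT. Reaction ran 45 min at room temperature, then binding reagent was added for 30 min in the dark. IC50 was taken from dose-response fits of percent inhibition.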

CDK2/cyclin A2 = biological target: T2, CDK2/cyclin A2 (Homo sapiens, UniProt P24941); test: Human CDK2/cyclin A2 inhibitory activity (QS S Assist CDK2/Cyclin A2_FP Kit, IMAP fluorescence polarization); type: biochemical
T2 construct: purchased Carna Biosciences, Inc. QS S Assist CDK2/Cyclin A2_FP Kit
In short: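 Kinase activity read as fluorescence polarization (485/535 nm) after phosphorylated fluorescent substrate binds IMAP reagent (30 min, RT, dark). Enzyme (2.5 ng/well) reacted 60 min at RT with ATP/substrate/metal in HEPES pH 7.4 buffer with Tween 20 and DTT; no-enzyme wells define 0% activity; IC50 by curve fit.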

[1] = 50% inhibitory concentration against CDK4/cyclin D3, given as class symbol
[2] = 50% inhibitory concentration against CDK2/cyclin A2, given as class symbol
[3] = Human CDK4/cyclin D3 inhibitory activity, read-out: CDK4 Activity symbol
[4] = Human CDK2/cyclin A2 inhibitory activity, read-out: CDK2 Activity symbol

T1 sequence (P11802 whole entry): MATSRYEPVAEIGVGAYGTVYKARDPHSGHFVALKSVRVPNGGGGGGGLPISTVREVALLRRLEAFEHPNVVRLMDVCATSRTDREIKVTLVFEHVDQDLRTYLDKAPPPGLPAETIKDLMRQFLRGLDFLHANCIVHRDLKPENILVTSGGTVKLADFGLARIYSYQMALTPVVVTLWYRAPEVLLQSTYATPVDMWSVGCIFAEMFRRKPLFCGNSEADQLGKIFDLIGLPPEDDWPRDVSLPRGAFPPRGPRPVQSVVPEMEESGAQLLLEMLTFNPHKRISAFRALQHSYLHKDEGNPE
T1 sequence (P30281 whole entry partner): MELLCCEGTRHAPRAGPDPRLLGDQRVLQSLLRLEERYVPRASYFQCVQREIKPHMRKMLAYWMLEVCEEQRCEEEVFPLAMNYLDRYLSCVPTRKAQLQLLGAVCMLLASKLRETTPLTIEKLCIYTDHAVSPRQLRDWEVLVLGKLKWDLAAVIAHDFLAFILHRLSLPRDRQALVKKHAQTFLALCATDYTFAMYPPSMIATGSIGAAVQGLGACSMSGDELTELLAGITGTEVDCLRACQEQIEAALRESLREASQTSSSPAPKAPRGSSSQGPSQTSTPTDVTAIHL

Compound: CC(C)Nc1nc([C@@H](C)O)cc2cnc(Nc3ccc(N4CCN(C(=O)CO)CC4)cn3)nc12 [Compound 1090]
- pIC50 (CDK4/cyclin D3; [1]): > 8.00
- pIC50 (CDK2/cyclin A2; [2]): ≤ 7.00

Compound: FC(F)c1cc2cnc(Nc3ccc(N4CCNCC4)cn3)nc2c(NC2CC2)n1 [Compound 18]
- pIC50 (CDK4/cyclin D3; [3]): > 8.00
- pIC50 (CDK2/cyclin A2; [4]): ≤ 7.00

Compound: C[C@@H](O)c1cc2cnc(Nc3ccc(CN4CCC[C@H](O)C4)cn3)nc2c(NC(C)(C)C)n1 [Compound 1200]
- pIC50 (CDK4/cyclin D3; [1]): > 8.00
- pIC50 (CDK2/cyclin A2; [2]): ≤ 7.00

Compound: CC(C)Nc1nc(C(F)F)cc2cnc(Nc3ccc(N4CCNCC4)cn3)nc12 [Compound 46]
- pIC50 (CDK4/cyclin D3; [3]): > 8.00
- pIC50 (CDK2/cyclin A2; [4]): 7.00 to 8.00

Compound: CO[C@H](C)c1cc2cnc(Nc3ccc(N4CCNC5(CC5)C4)nn3)nc2c(N[C@H]2CCCOC2)n1 [Compound 376]
- pIC50 (CDK4/cyclin D3; [3]): > 8.00
- pIC50 (CDK2/cyclin A2; [4]): ≤ 7.00

Compound: CC(C)Nc1nc([C@@H](C)O)cc2cnc(Nc3ccc(N4CCC(CCC(=O)O)CC4)nn3)nc12 [Compound 828]
- pIC50 (CDK4/cyclin D3; [1]): 7.00 to 8.00
- pIC50 (CDK2/cyclin A2; [2]): ≤ 7.00

Compound: CC(C)Nc1nc([C@@H](C)O)cc2cnc(Nc3ccc(O[C@@H]4CCNC4)cn3)nc12 [Compound 572]
- pIC50 (CDK4/cyclin D3; [3]): > 8.00
- pIC50 (CDK2/cyclin A2; [4]): ≤ 7.00

Compound: CC(C)Nc1nc([C@@H](C)O)cc2cnc(Nc3ccc(N4CCN[C@@H](C)C4=O)cn3)nc12 [Compound 507]
- pIC50 (CDK4/cyclin D3; [3]): > 8.00
- pIC50 (CDK2/cyclin A2; [4]): ≤ 7.00

Compound: C[C@@H](O)c1cc2cnc(Nc3ccc(CN4CCNCC4)cn3)nc2c(N[C@H]2CC[C@H](O)CC2)n1 [Compound 344]
- pIC50 (CDK4/cyclin D3; [3]): > 8.00
- pIC50 (CDK2/cyclin A2; [4]): ≤ 7.00

Compound: C[C@@H](O)c1cc2cnc(Nc3ccc(CC4CCN(CCO)CC4)cn3)nc2c(NCC2CCOCC2)n1 [Compound 953]
- pIC50 (CDK4/cyclin D3; [1]): > 8.00
- pIC50 (CDK2/cyclin A2; [2]): ≤ 7.00

Compound: COC[C@H](C)Nc1nc([C@@H](C)O)cc2cnc(Nc3ccc(N4CCNCC4=O)cn3)nc12 [Compound 752]
- pIC50 (CDK4/cyclin D3; [1]): 7.00 to 8.00
- pIC50 (CDK2/cyclin A2; [2]): ≤ 7.00

Compound: CC(C)Nc1nc([C@@H](C)O)cc2cnc(Nc3ccc(CN4CCN(C(=O)CO)CC4)cn3)nc12 [Compound 987]
- pIC50 (CDK4/cyclin D3; [1]): > 8.00
- pIC50 (CDK2/cyclin A2; [2]): ≤ 7.00

Compound: CC(C)Nc1nc(C(C)O)cc2cnc(Nc3ccc(N4CCC(O)C5(CC5)C4)nn3)nc12 (single isomer, unassigned) [Compound 724]
- pIC50 (CDK4/cyclin D3; [1]): > 8.00
- pIC50 (CDK2/cyclin A2; [2]): ≤ 7.00

Compound: CC(C)Nc1nc(C2(C)COC2)cc2cnc(Nc3ccc(N4CCN(CC(=O)O)CC4C(F)(F)F)cn3)nc12 (stereo not shown) [Compound 890]
- pIC50 (CDK4/cyclin D3; [1]): 7.00 to 8.00
- pIC50 (CDK2/cyclin A2; [2]): ≤ 7.00

Compound: CC(C)Nc1nc(C(F)F)cc2cnc(Nc3ccc(N4CCOCC4)cn3)nc12 [Compound 43]
- pIC50 (CDK4/cyclin D3; [3]): > 8.00
- pIC50 (CDK2/cyclin A2; [4]): 7.00 to 8.00

Compound: CCCNc1nc([C@@H](C)O)cc2cnc(Nc3ccc(CN4CCN(C(C)CO)CC4)cn3)nc12 (single isomer, unassigned) [Compound 1206]
- pIC50 (CDK4/cyclin D3; [1]): > 8.00
- pIC50 (CDK2/cyclin A2; [2]): ≤ 7.00

Compound: FC(F)c1cc2cnc(Nc3ccc(N4CCNCC4)nn3)nc2c(N[C@H]2CCCOC2)n1 [Compound 381]
- pIC50 (CDK4/cyclin D3; [3]): > 8.00
- pIC50 (CDK2/cyclin A2; [4]): ≤ 7.00

Compound: OCCN1CCN(Cc2ccc(Nc3ncc4cc(C5CCOC5)nc(N[C@H]5CCCOC5)c4n3)nc2)CC1 (stereo partly shown) [Compound 1011]
- pIC50 (CDK4/cyclin D3; [1]): > 8.00
- pIC50 (CDK2/cyclin A2; [2]): ≤ 7.00

Compound: CC(C)Nc1nc(C(F)F)cc2cnc(Nc3ccc(N4CCC(O)CC4)nn3)nc12 [Compound 171]
- pIC50 (CDK4/cyclin D3; [3]): > 8.00
- pIC50 (CDK2/cyclin A2; [4]): 7.00 to 8.00

Compound: C[C@@H](O)c1cc2cnc(Nc3ccc(N4CCNCC4)nn3)nc2c(N[C@H]2CCCOC2)n1 [Compound 253]
- pIC50 (CDK4/cyclin D3; [3]): > 8.00
- pIC50 (CDK2/cyclin A2; [4]): ≤ 7.00

Compound: CC(C)Nc1nc(C(F)F)cc2cnc(Nc3ccc(O[C@H]4CC[C@@H](O)CC4)cn3)nc12 [Compound 119]
- pIC50 (CDK4/cyclin D3; [3]): 7.00 to 8.00
- pIC50 (CDK2/cyclin A2; [4]): ≤ 7.00

Compound: CO[C@H](C)c1cc2cnc(Nc3ccc(CN4CCOCC4=O)cn3)nc2c(NC(C)C)n1 [Compound 199]
- pIC50 (CDK4/cyclin D3; [3]): 7.00 to 8.00
- pIC50 (CDK2/cyclin A2; [4]): ≤ 7.00

Compound: CC(O)c1cc2cnc(Nc3ccc(OC4CCNCC4F)cn3)nc2c(NC2CCCOC2)n1 (stereo not shown) [Compound 645]
- pIC50 (CDK4/cyclin D3; [1]): > 8.00
- pIC50 (CDK2/cyclin A2; [2]): ≤ 7.00

Compound: C[C@@H](O)c1cc2cnc(Nc3ccc(N4CCNCC4=O)cn3)nc2c(NC2CC(F)(F)C2)n1 [Compound 1211]
- pIC50 (CDK4/cyclin D3; [1]): 7.00 to 8.00
- pIC50 (CDK2/cyclin A2; [2]): ≤ 7.00

Compound: CCC(O)c1cc2cnc(Nc3ccc(N4CCNCC4)cn3)nc2c(NC(C)C)n1 (stereo not shown) [Compound 1034]
- pIC50 (CDK4/cyclin D3; [1]): > 8.00
- pIC50 (CDK2/cyclin A2; [2]): ≤ 7.00

Compound: CC(C)Nc1nc([C@H](C)O)c(F)c2cnc(Nc3ccc(N4CCNCC4)cn3)nc12 [Compound 63]
- pIC50 (CDK4/cyclin D3; [3]): > 8.00
- pIC50 (CDK2/cyclin A2; [4]): ≤ 7.00

Compound: CC(C)Nc1nc(C(F)F)cc2cnc(Nc3ccc(CN4CCC(N(C)C)CC4)cn3)nc12 [Compound 130]
- pIC50 (CDK4/cyclin D3; [3]): > 8.00
- pIC50 (CDK2/cyclin A2; [4]): 7.00 to 8.00

Compound: CC(CN(C)C)Oc1ccc(Nc2ncc3cc([C@@H](C)O)nc(N[C@H]4CCCOC4)c3n2)nc1 (stereo partly shown) [Compound 781]
- pIC50 (CDK4/cyclin D3; [1]): > 8.00
- pIC50 (CDK2/cyclin A2; [2]): ≤ 7.00

Compound: C[C@@H](O)c1cc2cnc(Nc3ccc(N4CCN(C=O)CC4=O)cn3)nc2c(N[C@@H]2CCOC2)n1 [Compound 353]
- pIC50 (CDK4/cyclin D3; [3]): > 8.00
- pIC50 (CDK2/cyclin A2; [4]): ≤ 7.00
